Measured values as given in ChEMBL document CHEMBL5120890, “Untapped Pharmaceutical Potential of 4,5,4'-Trihydroxy-3,3'-dimethoxybibenzyl for Regulating Obesity: A Cell-Based Study with a Focus on Terminal Differentiation in Adipogenesis” (J Nat Prod, 2022).
Active and inactive are the calls of the source. No cut-off for these calls is given here.

Key:
[1] = Cytotoxicity against human PCS-210-010 pre-adipocytes assessed as reduction in cell viability at >=10 uM after 48 hrs by MTT assay; format: toxicity, cell-based; settings: pcs-210-010, 48 h
PCS-210-010 [2] = assay: Inhibition of preadipocyte differentiation in human PCS-210-010 cells assessed as reduction in triglyceride accumulation in early differentiation at 0.5 to 5 uM incubated for 8 days by colorimetric assay; format: functional, cell-based; settings: dose 0.5-5 µM, time 8.0 day, DDE = dose-dependent effect
PCS-210-010 [3] = assay: Inhibition of preadipocyte differentiation in human PCS-210-010 cells assessed as reduction in lipid droplet accumulation in maturation at 0.5 to 5 uM incubated for 8 days by Oil Red O staining based inverted optical microscopic analysis; format: functional, cell-based; settings: dose 0.5-5 µM, time 8.0 day
3T3-L1 [4] = assay: Down regulation of C/EBpalpha mRNA expression in mouse 3T3-L1 cells at 0.5 to 5 uM after 48 hrs by RT-qPCR analysis; format: functional, cell-based; settings: dose 0.5-5 µM, DDE = dose-dependent effect
[5] = target: T1, 5'-AMP-activated protein kinase (Mus musculus) (UniProt Q5EG47+Q8BRK8+Q6PAM0+O54950+Q91WG5+Q9R078+Q8BGM7); assay: Activation of AMPK in mouse 3T3-L1 cells assessed as increase in AMPKalpha phosphorylation in early differentiation at 0.5 to 5 uM after 48 hrs by Western blot analysis; format: cell-based; settings: filed as activator, dose 0.5-5 µM
3T3-L1 [6] = assay: Induction of apoptosis in mouse 3T3-L1 adipocytes at 0.5 to 5 uM after 48 hrs by PI/Hoechst 33342 staining based fluorescence microscopic analysis; format: functional, cell-based; settings: dose 0.5-5 µM
PCS-210-010 [7] = assay: Induction of apoptosis in human PCS-210-010 adipocytes at 0.5 to 5 uM after 48 hrs by PI/Hoechst 33342 staining based fluorescence microscopic analysis; format: functional, cell-based; settings: dose 0.5-5 µM
PCS-210-010 [8] = assay: Inhibition of preadipocyte differentiation in human PCS-210-010 cells assessed as reduction in triglyceride accumulation in maturation at 0.5 to 5 uM incubated for 8 days by colorimetric assay; format: functional, cell-based; settings: dose 0.5-5 µM, time 8.0 day, DDE = dose-dependent effect
3T3-L1 [9] = assay: Down regulation of adiponectin protein expression in mouse 3T3-L1 cells in maturation at 0.5 to 5 uM after 10 days by western blot analysis; format: functional, cell-based; settings: dose 0.5-5 µM, time 10.0 day
3T3-L1 [10] = assay: Down regulation of CDK6 protein expression in mouse 3T3-L1 cells at 0.5 to 5 uM after 18 hrs by western blot analysis; format: functional, cell-based; settings: dose 0.5-5 µM
[11] = Cytotoxicity against human PCS-210-010 pre-adipocytes assessed as reduction in cell viability at >=25 uM after 48 hrs by MTT assay; format: toxicity, cell-based; settings: pcs-210-010, 48 h
3T3-L1 [12] = assay: Down regulation of Cyclin D1 protein expression in mouse 3T3-L1 cells at 0.5 to 5 uM after 18 hrs by western blot analysis; format: functional, cell-based; settings: dose 0.5-5 µM
3T3-L1 [13] = assay: Inhibition of preadipocyte differentiation in mouse 3T3-L1 cells assessed as reduction in lipid droplet accumulation in early differentiation at 0.5 to 5 uM incubated for 8 days by Oil Red O staining based inverted optical microscopic analysis; format: functional, cell-based; settings: dose 0.5-5 µM, time 8.0 day
3T3-L1 [14] = assay: Cytotoxicity against mouse 3T3-L1 pre-adipocytes assessed as reduction in cell viability at >=10 uM after 48 hrs by MTT assay; format: toxicity, cell-based; settings: 3t3-l1, 48 h
3T3-L1 [15] = assay: Down regulation of LPL protein expression in mouse 3T3-L1 cells in early differentiation at 0.5 to 5 uM after 8 days by western blot analysis; format: functional, cell-based; settings: dose 0.5-5 µM, time 8.0 day
3T3-L1 [16] = assay: Cytotoxicity against mouse 3T3-L1 pre-adipocytes assessed as reduction in cell viability at >=25 uM after 48 hrs by MTT assay; format: toxicity, cell-based; settings: 3t3-l1, 48 h
3T3-L1 [17] = assay: Upregulation of p27 protein expression in mouse 3T3-L1 cells at 0.5 to 5 uM after 18 hrs by western blot analysis; format: functional, cell-based; settings: dose 0.5-5 µM
3T3-L1 [18] = assay: Antiproliferative activity against mouse 3T3-L1 cells assessed as reduction in cell proliferation at 0.5 to 5 uM after 24 to 72 hrs by crystal violet staining based assay; format: functional; settings: dose 0.5-5 µM, time 24-72 hrs
PCS-210-010 [19] = assay: Inhibition of preadipocyte differentiation in human PCS-210-010 cells assessed as increase in glycerol release in early differentiation at 0.5 to 5 uM incubated for 8 days by colorimetric assay; format: functional, cell-based; settings: dose 0.5-5 µM, time 8.0 day, DDE = dose-dependent effect
3T3-L1 [20] = assay: Down regulation of adiponectin mRNA expression in mouse 3T3-L1 cells in maturation at 0.5 to 5 uM after 10 days by RT-qPCR analysis; format: functional, cell-based; settings: dose 0.5-5 µM, time 10.0 day
3T3-L1 [21] = assay: Inhibition of preadipocyte differentiation in mouse 3T3-L1 cells assessed as reduction in triglyceride accumulation in early differentiation at 0.5 to 5 uM incubated for 8 days by colorimetric assay; format: functional, cell-based; settings: dose 0.5-5 µM, time 8.0 day, DDE = dose-dependent effect
3T3-L1 [22] = assay: Down regulation of PPARG mRNA expression in mouse 3T3-L1 cells at 0.5 to 5 uM after 48 hrs by RT-qPCR analysis; format: functional, cell-based; settings: dose 0.5-5 µM, DDE = dose-dependent effect
3T3-L1 [23] = assay: Down regulation of LPL mRNA expression in mouse 3T3-L1 cells in early differentiation at 0.5 to 5 uM after 8 days by RT-qPCR analysis; format: functional, cell-based; settings: dose 0.5-5 µM, time 8.0 day
3T3-L1 [24] = assay: Down regulation of LPL protein expression in mouse 3T3-L1 cells in maturation at 0.5 to 5 uM after 10 days by western blot analysis; format: functional, cell-based; settings: dose 0.5-5 µM, time 10.0 day
3T3-L1 [25] = assay: Effect on Cyclin D3 protein expression in mouse 3T3-L1 cells at 0.5 to 5 uM after 18 hrs by western blot analysis; format: functional, cell-based; settings: dose 0.5-5 µM
3T3-L1 [26] = assay: Inhibition of preadipocyte differentiation in mouse 3T3-L1 cells assessed as increase in glycerol release in maturation at 0.5 to 5 uM incubated for 8 days by colorimetric assay; format: functional, cell-based; settings: dose 0.5-5 µM, time 8.0 day, DDE = dose-dependent effect
PCS-210-010 [27] = assay: Inhibition of preadipocyte differentiation in human PCS-210-010 cells assessed as reduction in lipid droplet accumulation in early differentiation at 0.5 to 5 uM incubated for 8 days by Oil Red O staining based inverted optical microscopic analysis; format: functional, cell-based; settings: dose 0.5-5 µM, time 8.0 day
3T3-L1 [28] = assay: Down regulation of FAS protein expression in mouse 3T3-L1 cells in maturation at 0.5 to 5 uM after 10 days by western blot analysis; format: functional, cell-based; settings: dose 0.5-5 µM, time 10.0 day
[29] = Cytotoxicity against human PCS-210-010 pre-adipocytes assessed as reduction in cell viability after 48 hrs by MTT assay; format: toxicity, cell-based
[30] = target: T1, 5'-AMP-activated protein kinase (Mus musculus); assay: Activation of AMPK in mouse 3T3-L1 cells assessed as increase in AMPKbeta phosphorylation in early differentiation at 0.5 to 5 uM after 48 hrs by Western blot analysis; format: cell-based; settings: filed as activator, dose 0.5-5 µM
3T3-L1 [31] = assay: Down regulation of PPARG protein expression in mouse 3T3-L1 cells at 0.5 to 5 uM after 48 hrs by western blot analysis; format: functional, cell-based; settings: dose 0.5-5 µM, DDE = dose-dependent effect
3T3-L1 [32] = assay: Down regulation of SREBP1 mRNA expression in mouse 3T3-L1 cells at 0.5 to 5 uM after 48 hrs by RT-qPCR analysis; format: functional, cell-based; settings: dose 0.5-5 µM, DDE = dose-dependent effect
[33] = Cytotoxicity against human PCS-210-010 adipocytes assessed as reduction in cell viability after 48 hrs by MTT assay; format: toxicity, cell-based
[34] = target: T1, 5'-AMP-activated protein kinase (Mus musculus); assay: Activation of AMPK in mouse 3T3-L1 cells assessed as increase in AMPKalpha phosphorylation in maturation at 0.5 to 5 uM after 48 hrs by Western blot analysis; format: cell-based; settings: filed as activator, dose 0.5-5 µM
3T3-L1 [35] = assay: Upregulation of p21 protein expression in mouse 3T3-L1 cells at 0.5 to 5 uM after 18 hrs by western blot analysis; format: functional, cell-based; settings: dose 0.5-5 µM

COc1cc(CCc2cc(O)c(O)c(OC)c2)ccc1O
Activity [1]: Toxic
inhibition (PCS-210-010 [2]): Dde
inhibition (PCS-210-010 [3]): Active
Activity (3T3-L1 [4]): Dde
Activity [5]: Active
Activity (3T3-L1 [6]): Non-Toxic
Activity (PCS-210-010 [7]): Non-Toxic
inhibition (PCS-210-010 [8]): Dde
Activity (3T3-L1 [9]): Active
Activity (3T3-L1 [10]): Active
Activity [11]: Toxic
Activity (3T3-L1 [12]): Active
inhibition (3T3-L1 [13]): Active
Activity (3T3-L1 [14]): Toxic
Activity (3T3-L1 [15]): Active
Activity (3T3-L1 [16]): Toxic
Activity (3T3-L1 [17]): Active
Activity (3T3-L1 [18]): Active
inhibition (PCS-210-010 [19]): Dde
Activity (3T3-L1 [20]): Active
inhibition (3T3-L1 [21]): Dde
Activity (3T3-L1 [22]): Dde
Activity (3T3-L1 [23]): Active
Activity (3T3-L1 [24]): Active
Activity (3T3-L1 [25]): Active
inhibition (3T3-L1 [26]): Dde
inhibition (PCS-210-010 [27]): Active
Activity (3T3-L1 [28]): Active
IC50 at 48 h ([29]; PCS-210-010 pre-adipocytes): 34.6 µM
Activity ([29]; pcs-210-010, 48 h, time 48 hrs): Toxic
Activity [30]: Active
Activity (3T3-L1 [31]): Dde
Activity (3T3-L1 [32]): Dde
IC50 at 48 h ([33]; PCS-210-010 adipocytes): 71.9 µM
Activity ([33]; pcs-210-010, 48 h, time 48 hrs): Toxic
Activity [34]: Active
Activity (3T3-L1 [35]): Active
